Test results: patent EP0154886A2, “Carboxyalkyl dipeptide derivatives, process for their preparation, agents containing them, and their use” (HOECHST AKTIENGESELLSCHAFT, priority 1984, dated 1985)

Columns and labels:
[1] = molecular target: Angiotensin-Converting-Enzyme (ACE) (Homo sapiens, UniProt P12821); experiment: ACE inhibition in vitro assay (Biochem. Biophys. Acta, 206, 136 (1970)); assay type: biochemical
[2] = tested on: durch intravenöse Gabe von 310 ng Angiotensin hervorgerufene Pressorreaktion; experiment: Inhibition of the angiotensin-induced pressor response in the anaesthetised rat after intraduodenal administration; assay type: in vivo, Ratte; conditions: narcotised rat
Method: Die erfindungsgemäßen Verbindungen der Formel I sind Hemmer des Angiotensin-Converting-Enzyme (ACE), das die Umwandlung von Angiotensin I in das pressorisch wirksame Angiotensin II katalysiert. […] Besonders interessant ist hierbei der langsame Wirkungseintritt und die lange Wirkdauer der Verbindung. So beobachtet man bei intraduodenaler Gabe von 0,3 mg/kg Körpergewicht eine Hemmung um 15 % nach 10 min, 30 % nach 20 min, 60 % nach 30 min und 70 % nach 45 min; die Wirkung hält länger als 6 Stunden an.

Sequence of Angiotensin-Converting-Enzyme (ACE) (P12821 30-1306, species assumed): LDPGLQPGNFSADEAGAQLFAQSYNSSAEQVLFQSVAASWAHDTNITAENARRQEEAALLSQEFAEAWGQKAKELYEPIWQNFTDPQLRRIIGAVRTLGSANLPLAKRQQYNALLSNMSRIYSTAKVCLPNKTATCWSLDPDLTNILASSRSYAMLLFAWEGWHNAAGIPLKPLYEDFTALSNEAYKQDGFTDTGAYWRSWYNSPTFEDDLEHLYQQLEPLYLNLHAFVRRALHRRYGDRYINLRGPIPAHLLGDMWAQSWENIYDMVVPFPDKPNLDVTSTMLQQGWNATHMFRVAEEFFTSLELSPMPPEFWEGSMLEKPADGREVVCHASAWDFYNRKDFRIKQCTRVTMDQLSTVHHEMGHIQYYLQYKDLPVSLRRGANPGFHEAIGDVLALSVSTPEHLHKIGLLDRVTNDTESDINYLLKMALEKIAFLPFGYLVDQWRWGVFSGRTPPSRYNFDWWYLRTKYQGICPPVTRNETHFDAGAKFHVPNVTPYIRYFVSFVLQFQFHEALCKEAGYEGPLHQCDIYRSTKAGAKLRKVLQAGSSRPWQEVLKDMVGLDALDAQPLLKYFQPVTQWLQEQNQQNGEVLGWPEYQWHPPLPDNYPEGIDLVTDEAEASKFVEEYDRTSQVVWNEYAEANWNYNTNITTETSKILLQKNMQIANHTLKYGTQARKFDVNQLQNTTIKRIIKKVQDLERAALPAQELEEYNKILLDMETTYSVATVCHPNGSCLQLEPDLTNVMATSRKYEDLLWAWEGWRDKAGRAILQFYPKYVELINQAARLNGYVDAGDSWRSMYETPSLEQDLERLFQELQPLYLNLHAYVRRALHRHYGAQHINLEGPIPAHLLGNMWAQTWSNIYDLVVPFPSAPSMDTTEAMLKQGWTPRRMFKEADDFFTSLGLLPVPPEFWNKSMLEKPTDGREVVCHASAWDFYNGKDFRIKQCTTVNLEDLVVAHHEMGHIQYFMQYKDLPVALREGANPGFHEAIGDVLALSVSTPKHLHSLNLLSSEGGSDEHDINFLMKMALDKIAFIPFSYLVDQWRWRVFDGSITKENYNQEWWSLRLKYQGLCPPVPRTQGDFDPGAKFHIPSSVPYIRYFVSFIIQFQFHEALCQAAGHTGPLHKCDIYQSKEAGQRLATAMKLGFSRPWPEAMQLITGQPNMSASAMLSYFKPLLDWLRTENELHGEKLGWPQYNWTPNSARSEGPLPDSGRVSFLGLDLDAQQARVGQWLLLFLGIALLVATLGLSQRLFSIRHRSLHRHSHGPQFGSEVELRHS

## NCCCC[C@H](N[C@@H](CCC1CCCCC1)C(=O)O)C(=O)N1[C@H](C(=O)O)C[C@@H]2CCCC[C@@H]21 [N-(1-S-CarboxY-3-cyclohexyl-propyl)-S-lysyl-2S,3aS,7aS-octahydroindol-2-carbonsäure]
[1]
  IC50: 3.4 nM
[2]; intraduodenal 0,3 mg/kg Körpergewicht, after 10 min
  Hemmung: 15%
[2]; intraduodenal 0,3 mg/kg Körpergewicht, after 20 min
  Hemmung: 30%
[2]; intraduodenal 0,3 mg/kg Körpergewicht, after 30 min
  Hemmung: 60%
[2]; intraduodenal 0,3 mg/kg Körpergewicht, after 45 min
  Hemmung: 70%
[2]; intraduodenal 0,3 mg/kg Körpergewicht, duration of effect
  Wirkdauer (die Wirkung hält an): > 6 Stunden
[2]; intraduodenal administration, 310 ng Angiotensin i.v., qualitative
  Hemmwirkung auf die Pressorreaktion: starke Hemmwirkung
